Experimental data published in patent publication US11549123B2, “Plant EPSP synthases and methods of use” (PIONEER HI-BRED INTERNATIONAL, INC., priority 2015, dated 2023).

Tests used:
Assay type in all cases: biochemical
[1] = target: T1, Zea mays EPSPS variant Zm-H6 (868-H6) with R61Y (H6-R61Y) (Zea mays, UniProt O24566, A1R/A3W/A415G/A71Q/D401G/E301S/E390G/G101A/I207L/K83R/L97C/R60Y/T278A/T360S/T440Q/V437R); experiment: Rapid two-rate method for (kcat/KM)*KI, H6-R61Y; conditions: [E] 0.07 uM, [Gly] 1000 uM
T1 construct: 868-H6 plus R61Y; E. coli BL21(DE3), Ni-NTA purified
T1 sequence (O24566 with tags, fused parts or gaps A1R/A3W/R60Y/A71Q/K83R/L97C/G101A/I207L/T278A/E301S/T360S/E390G/D401G/A415G/V437R/T440Q): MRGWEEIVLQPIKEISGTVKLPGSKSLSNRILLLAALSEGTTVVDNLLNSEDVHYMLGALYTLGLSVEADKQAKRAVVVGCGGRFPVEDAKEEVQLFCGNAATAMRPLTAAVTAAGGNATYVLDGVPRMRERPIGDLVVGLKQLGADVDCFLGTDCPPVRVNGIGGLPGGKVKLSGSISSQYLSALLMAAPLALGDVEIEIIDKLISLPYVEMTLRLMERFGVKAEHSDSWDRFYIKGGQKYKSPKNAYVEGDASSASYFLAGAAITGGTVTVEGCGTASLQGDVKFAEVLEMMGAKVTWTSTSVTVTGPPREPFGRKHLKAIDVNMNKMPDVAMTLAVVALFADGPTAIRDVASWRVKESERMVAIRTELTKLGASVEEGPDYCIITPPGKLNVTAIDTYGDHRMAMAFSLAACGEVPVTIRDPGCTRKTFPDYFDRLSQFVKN
Excerpt: (§1) There are several practical considerations for accurately estimating (kcat/KM)*KI with the rapid method. […] 2) The inhibitor concentration must be adjusted so as to obtain a degree of inhibition that minimally amplifies the error in the term v0-vi in Equation 3. If inhibition is too little, v0-vi will be small, and the error in the multiplier vi×v0/(v0-vi) will be large. […] 3) Substrate concentration should be set at the approximate KM of the parental variant(s), subject to the sensitivity of the assay. High substrate concentration obscures sensitivity to the inhibitor and reduces stringency for capturing improvements in KM. Depending on the necessity for speed, there exists opportunity for customizing enzyme and inhibitor concentrations. […] The rapid method was repeated for those and obtained data that correlated better with data obtained by substrate saturation analysis. For screening purposes however, that correlation step is not necessary. Conditions can be set so that variants with a pre-determined minimal fitness level are accurately quantified.
(§2) In Table 15, parameters above the heavy line for the rapid method were obtained under standard conditions. For variants shown below the heavy line, the rapid analysis was repeated with enzyme or glyphosate concentrations adjusted as needed to generate sufficient signal within the limits for linear initial rates.

[2] = target: T2, Zea mays EPSPS variant Zm-A189T (Zea mays, UniProt O24566, A188T); experiment: Rapid two-rate method for (kcat/KM)*KI, Zm-A189T; conditions: [E] 0.07 uM, [Gly] 1000 uM
T2 sequence (O24566 with tags, fused parts or gaps A188T): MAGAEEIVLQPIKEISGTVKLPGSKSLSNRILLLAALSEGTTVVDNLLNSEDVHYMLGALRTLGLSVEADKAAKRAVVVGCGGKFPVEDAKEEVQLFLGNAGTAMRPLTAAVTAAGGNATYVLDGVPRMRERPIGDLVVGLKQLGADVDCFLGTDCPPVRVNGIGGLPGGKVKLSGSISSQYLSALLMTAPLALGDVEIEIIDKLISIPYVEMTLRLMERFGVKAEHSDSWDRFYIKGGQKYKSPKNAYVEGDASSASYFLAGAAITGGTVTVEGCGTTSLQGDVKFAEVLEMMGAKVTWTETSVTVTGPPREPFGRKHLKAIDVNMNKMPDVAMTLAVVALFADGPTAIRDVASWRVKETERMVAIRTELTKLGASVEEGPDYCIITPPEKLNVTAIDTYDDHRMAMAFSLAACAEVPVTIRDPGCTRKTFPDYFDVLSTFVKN
Excerpt: as §1, §2

[3] = target: T2, Zea mays EPSPS variant Zm-A189T; experiment: Substrate saturation kinetic analysis with glyphosate, Zm-A189T

With `O=C(O)CNCP(=O)(O)O` [glyphosate, N-phosphonomethylglycine] the “(kcat/KM)*KI” value [1] was 1889, the “(kcat/KM)*KI” value [2] was 431 and the Ki [3] was 337 µM. For the same compound, the “(kcat/KM)*KI” value ([3]; substrate saturation, Zm-A189T) was 283.
